Results from patent US8530669B2, “Ester compound and use thereof” (Sumitomo Chemical Company, Limited, priority 2010, dated 2013).

Experiments:
[1] = test system: German cockroaches (Blattella germanica); test: Test Example 8: oil solution spray knock-down test on German cockroaches; assay type: in vivo; settings: adult German cockroaches, 1.5 ml of 0.00625% (w/v) oil solution sprayed, repeated once
Description: Zero point zero zero six two five (0.00625) part of the compound of the present inventions (1), (2), (3), (4) and (5) was dissolved in 10 parts of isopropyl alcohol and the solution was mixed with 89.99375 parts of deodorized kerosene to prepare a 0.00625% (w/v) oil solution.
Ten adult German cockroaches (Blattella germanica, 5 males and 5 females) were released in a test container (diameter 8.75 cm, 7.5 cm high, the bottom face is made of 16 mesh metallic wire), the inner face on which butter was applied, and the container was set at the bottom of a test chamber (bottom face: 46 cm×46 cm, height: 70 cm).
Each 1.5 ml of the oil solution of the compound of the present invention (1), (2), (3), (4) and (5) was sprayed using a spray gun at a pressure of 0.4 kg/cm^2 from 60 cm higher than the upper face of the container. Thirty seconds after the spraying, the container was pulled out from the chamber. Two minutes after spraying, the number of knocked-down cockroaches was counted and a knock-down ratio was determined (repeated once). A knocked-down ratio was calculated by the following equation. Knocked-down ratio(%)=(Number of knocked-down cockroaches/Number of test cockroaches)×100 The results (2 minutes after spraying) are shown in Table 5.

[2] = test system: American cockroaches (Periplaneta Americana); test: Test Example 1: oil solution spray knock-down test on American cockroaches; assay type: in vivo; settings: adult American cockroaches, 1.5 ml of 0.1% (w/v) oil solution sprayed, repeated twice
Description: (§1) Zero point one (0.1) part of the compound of the present inventions (1), (2) and (4) was dissolved in 10 parts of isopropyl alcohol and the solution was mixed with 89.9 parts of deodorized kerosene to prepare a 0.1% (w/v) oil solution.
(§2) Six adult American cockroaches (Periplaneta Americana, 3 males and 3 females) were released in a test container (diameter 12.5 cm, 10 cm high, the bottom face is made of 16 mesh metallic wire), the inner face on which butter was applied, and the container was set at the bottom of a test chamber (bottom face: 46 cm×46 cm, height: 70 cm). Each 1.5 ml of the oil solution of the compound of the present invention (1), (2) and (4) was sprayed using a spray gun at a pressure of 0.4 kg/cm^2 from 60 cm higher than the upper face of the container. Thirty seconds after the spraying, the container was pulled out from the chamber. After a prescribed time, the number of knocked-down cockroaches was counted and a knock-down ratio was determined (repeated twice). The knocked-down ratio was calculated by the following equation. Knocked-down ratio(%)=(Number of knocked-down cockroaches/Number of test cockroaches)×100
For comparison, the test was conducted in the same manner as the above, except for using 2,5-dioxo-3-(2-propynyl)imidazolidinylmethyl=(1R)-cis-3-((Z)-2-cyano-2-methoxyethenyl)-2,2-dimethylcyclopropane carboxylate (compound described in JP-A-60-16962, hereinafter referred to as the comparative compound (1)) represented by the following formula: […]

[3] = test system: common mosquitoes (Culex pipens pallens); test: Test Example 2: oil solution spray knock-down test on common mosquitoes in glass chamber; assay type: in vivo; settings: adult female Culex pipens pallens, 0.025% (w/v) oil solution sprayed into 70 cm cubic glass chamber, 1 minute after spraying
Description: Zero point zero two five (0.025) part of the compound of the present invention (1) and (4) was dissolved in 10 parts of isopropyl alcohol, and the solution was mixed with 89.975 parts of deodorized kerosene to prepare a 0.025% (w/v) oil solution.
(§3) Ten adult female common mosquitoes (Culex pipens pallens) were released in a cubic glass chamber having each side of 70 cm. The oil solution of the compound of the present invention (1) and (4) was sprayed into the chamber through a small window on the side of the chamber using a spraying gun at a pressure of 0.9 kg/cm^2. One minutes after spraying, the number of knocked-down mosquitoes was counted and a knock-down ratio was determined. A knocked-down ratio was calculated by the following equation. Knocked-down ratio(%)=(Number of knocked-down mosquitoes/Number of test mosquitoes)×100

[4] = test system: houseflies (Musca domestica); test: Test Example 3: oil solution spray knock-down test on houseflies in glass chamber; assay type: in vivo; settings: adult Musca domestica, 0.7 ml of 0.025% (w/v) oil solution sprayed into 70 cm cubic glass chamber
Description: Zero point zero two five (0.025) part of the compound of the present invention (1) and (4) was dissolved in 10 parts of isopropyl alcohol, and the solution was mixed with […] parts of deodorized kerosene to prepare a 0.025% (w/v) oil solution.
as §3, with “houseflies (Musca domestica)” for “female common mosquitoes (Culex pipens pallens)”, “cm, and 0.7 ml of the” for “cm. The”, “Five” for “One”, “flies” for “mosquitoes”, “flies/Number” for “mosquitoes/Number”, “flies)×100” for “mosquitoes)×100”

[5] = test system: American cockroaches (Periplaneta Americana); test: Test Example 7: oil solution spray knock-down test on American cockroaches; assay type: in vivo; settings: adult American cockroaches, 1.5 ml of 0.1% (w/v) oil solution sprayed, repeated twice
Description: as §1
as §2, with “Three minutes after spraying,” for “After a prescribed time,”

SMILES	Knock-down ratio (%) 2 minutes after spraying [1]	Knock-down ratio (%) 2 minutes after spraying [2]	Knock-down ratio (%) 1 minutes after spraying [3]	Knock-down ratio (%) 5 minutes after spraying [4]	Knock-down ratio (%) 3 minutes after spraying [5]	melting point
C#CCn1c(C)nn(COC(=O)[C@@H]2[C@@H](C=C(C#N)SCC)C2(C)C)c1=O (relative stereo) [compound of the present invention (5), 3-methyl-5-oxo-4-(2-propynyl)-4,5-dihydro-[1,2,4]triazolylmethyl=(1R)-trans-3-[(1EZ)-2-cyano-2-(ethylthio)ethenyl]-2,2-dimethylcyclopropane carboxylate]	90%	–	–	–	–	–
C#CCN1CC(=O)N(COC(=O)[C@@H]2[C@H](/C=C(/C#N)OC)C2(C)C)C1=O [comparative compound (1), 2,5-dioxo-3-(2-propynyl)imidazolidinylmethyl=(1R)-cis-3-((Z)-2-cyano-2-methoxyethenyl)-2,2-dimethylcyclopropane carboxylate, reference compound]	–	42%	–	–	–	–
C#CCn1c(C)nn(COC(=O)[C@@H]2[C@@H](C=C(C)C)C2(C)C)c1=O [comparative compound (2), 3-methyl-5-oxo-4-(2-propynyl)-4,5-dihydro-[1,2,4]triazolylmethyl=(1R)-trans-3-(2-methyl-1-propenyl)-2,2-dimethylcyclopropane carboxylate, reference compound]	–	33%	–	–	–	–
C#CCn1c(C)nn(COC(=O)[C@@H]2[C@@H](C=C(C#N)SC)C2(C)C)c1=O [compound of the present invention (1), 3-methyl-5-oxo-4-(2-propynyl)-4,5-dihydro-[1,2,4]triazolylmethyl=(1R)-trans-3-[(1EZ)-2-cyano-2-(methylthio)ethenyl]-2,2-dimethylcyclopropane carboxylate]	100%	100%	95%	80%	100%	–
C#CCn1c(C)nn(COC(=O)[C@@H]2[C@@H](/C=C(\C#N)SC)C2(C)C)c1=O [compound of the present invention (2), 3-methyl-5-oxo-4-(2-propynyl)-4,5-dihydro-[1,2,4]triazolylmethyl=(1R)-trans-3-[(1E)-2-cyano-2-(methylthio)ethenyl]-2,2-dimethylcyclopropane carboxylate]	100%	92%	–	–	100%	104 to 105 °C
C#CCn1c(C)nn(COC(=O)[C@@H]2[C@@H](C=C(C#N)SCC)C2(C)C)c1=O [compound of the present invention (3), 3-methyl-5-oxo-4-(2-propynyl)-4,5-dihydro-[1,2,4]triazolylmethyl=(1R)-trans-3-[(1EZ)-2-cyano-2-(ethylthio)ethenyl]-2,2-dimethylcyclopropane carboxylate]	100%	–	–	–	–	–
C#CCn1c(C)nn(COC(=O)[C@@H]2[C@@H](/C=C(\C#N)SCC)C2(C)C)c1=O [compound of the present invention (4), 3-methyl-5-oxo-4-(2-propynyl)-4,5-dihydro-[1,2,4]triazolylmethyl=(1R)-trans-3-[(1E)-2-cyano-2-(ethylthio)ethenyl]-2,2-dimethylcyclopropane carboxylate]	100%	100%	100%	80%	100%	–
